From patent publication US11130768B2, “Bicyclic pyrazole derivatives” (Bayer Animal Health GMBH, priority 2017, dated 2021) come the findings set out here.

The subject of assay [1] is Nippostrongylus brasiliensis. In words: In Vitro Assay 2: Nippostrongylus brasiliensis (NIPOBR), acetylcholine esterase readout. Conditions: adult worms, read-out: activity (reduction of AChE compared to negative control); for inhibition at 1 µg/mL: 1 μg/ml (1 ppm); for inhibition at 10 µg/mL: 10 μg/ml (10 ppm). How it is done: In Vitro Assay 2: Nippostrongylus brasiliensis (NIPOBR)
Adult Nippostrongylus brasiliensis were washed with saline buffer containing 100 U/ml penicillin, 0.1 mg/ml streptomycin and 2.5 μg/ml amphotericin B. Test compounds were dissolved in DMSO and worms were incubated in medium in a final concentration of 10 μg/ml (10 ppm) respectively 1 μg/ml (1 ppm). An aliquot of the medium was used to determine the acetylcholine esterase activity in comparison to a negative control. The principle of measuring acetylcholine esterase as readout for anthelmintic activity was described in Rapson et al (1986) and Rapson et al (1987).

In assay [2] the test system is Dirofilaria immitis microfilariae. Description: In Vitro Assay 3: Dirofilaria immitis microfilariae (DIROIM L1), motility. Conditions: 72 h, read-out: EC50 (reduction of motility).
The next assay concerns Cooperia curticei. Conditions: 120 h, read-out: activity (larval mortality).
Another assay concerns the target C. elegans Slo-1a (Caenorhabditis elegans, UniProt Q95V25).
A further assay has as its system Haemonchus contortus. Conditions: 120 h, read-out: activity (larval mortality).

Chain of C. elegans Slo-1a (Q95V25 whole entry): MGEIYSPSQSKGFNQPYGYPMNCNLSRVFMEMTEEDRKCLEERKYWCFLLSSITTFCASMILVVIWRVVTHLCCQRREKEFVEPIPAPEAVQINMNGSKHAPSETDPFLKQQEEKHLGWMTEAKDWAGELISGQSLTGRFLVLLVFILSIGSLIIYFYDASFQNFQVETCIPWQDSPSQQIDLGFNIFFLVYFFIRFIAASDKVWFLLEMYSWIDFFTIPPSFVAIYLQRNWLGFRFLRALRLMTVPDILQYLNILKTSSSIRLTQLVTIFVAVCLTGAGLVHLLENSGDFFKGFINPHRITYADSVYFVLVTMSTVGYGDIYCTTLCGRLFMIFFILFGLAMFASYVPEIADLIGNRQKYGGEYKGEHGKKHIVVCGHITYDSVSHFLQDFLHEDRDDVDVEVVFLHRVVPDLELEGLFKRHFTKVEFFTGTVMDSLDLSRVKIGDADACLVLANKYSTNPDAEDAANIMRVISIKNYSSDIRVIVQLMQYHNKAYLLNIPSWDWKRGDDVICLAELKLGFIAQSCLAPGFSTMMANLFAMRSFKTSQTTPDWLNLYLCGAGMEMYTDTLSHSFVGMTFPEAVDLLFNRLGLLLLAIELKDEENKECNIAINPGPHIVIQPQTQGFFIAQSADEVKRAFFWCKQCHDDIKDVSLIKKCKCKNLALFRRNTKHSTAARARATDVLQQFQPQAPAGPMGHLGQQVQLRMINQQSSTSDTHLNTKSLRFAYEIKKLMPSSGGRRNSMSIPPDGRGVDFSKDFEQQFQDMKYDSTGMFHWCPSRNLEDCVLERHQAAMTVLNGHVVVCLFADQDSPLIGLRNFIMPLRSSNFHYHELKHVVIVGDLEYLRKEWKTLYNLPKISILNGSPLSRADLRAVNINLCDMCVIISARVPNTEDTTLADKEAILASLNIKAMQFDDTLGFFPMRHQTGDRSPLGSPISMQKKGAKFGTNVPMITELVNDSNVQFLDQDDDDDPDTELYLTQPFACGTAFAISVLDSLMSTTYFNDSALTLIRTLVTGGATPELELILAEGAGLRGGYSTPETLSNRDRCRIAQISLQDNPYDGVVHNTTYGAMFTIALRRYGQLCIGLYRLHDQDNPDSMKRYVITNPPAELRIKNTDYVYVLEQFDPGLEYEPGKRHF
Method for C. elegans Slo-1a: In Vitro Assay 1: C. elegans Slo-1a—Action at a Recombinant C. elegans Cell Line
Generation of a Stable C. elegans CHO Cell Line
A CHO cell line was obtained from ATCC, code ATCC CRL-9096. For transfection with plasmid DNA to express C. elegans Slo-1a (accession number AAL28102) CHO cells were passaged to 40% confluence before adding the transfection solution to the cell culture. The transfection solution included 300 μL OptiMEM (Life Technologies, Nr.: 31985), 2 μL (=6 μg) of plasmid DNA containing the C. elegans Slo 1a gene and 9 μL FugeneHD (Promega, Nr.: E2311), and was added to the cells prior to incubation for 48 hours at 37° C., 5% CO2. The transfection medium was exchanged for the selection medium which contains additional G418 (2 mg/ml, Invitrogen, Nr.: 10131) and the cells were seeded into 384 well plates (300 cells/well). After a few weeks, the remaining surviving cells were tested with a voltage sensitive dye (Membrane Potential Assay Kit, Molecular Devices Nr.: R8034) for K+ channel expression. Positive cell clones were purified by the limited dilution technique. For this the clone with the highest and most robust signal in the voltage sensitive dye assay was further subcloned (incubated) in 384 well plates (0.7 cells/well) in order to obtain clonal purity. This generated a final stable CHO cell line expressing the C. elegans Slo-1a.
Cells were cultured at 37° C. and 5% CO2 in MEMalpha with Gutamax I (Invitrogen, Nr.: 32571), supplemented with 10% (v/v) heat inactivated fetal bovine serum (Invitrogen, Nr.: 10500), G418 (1 mg/ml, Invitrogen, Nr.: 10131). Cells were detached using Accutase (Sigma, Nr.: A6964).
Membrane Potential Measurements
Laboratory compound testing was performed on 384-well microtiter plates (MTPs, Greiner, Nr.: 781092). 8000 cells/well were plated onto 384-well MTPs and cultured for 20 to 24 hours at 37° C. and 5% CO2. After removal of the cell culture medium, the cells were washed once with tyrode (150 mM NaCl, 0.3 mM KCl, 2 mM CaCl2, 1 mM MgCl2, 0.8 mM NaH2PO4, 5 mM Glucose, 28 mM Hepes, pH 7.4) and then loaded with the voltage sensitive dye of the Membrane Potential Assay Kit diluted in tyrode for 1 h at room temperature.
After starting the measurement of fluorescence using a FLIPR Tetra (Molecular Devices, Exc. 510-545 nm, Emm. 565-625 nm), test compounds were added followed by the addition of KCl tyrode (final assay concentration: 70 mM KCl, 2 mM CaCl2, 1 mM MgCl2, 0.8 mM NaH2PO4, 5 mM Glucose, 28 mM Hepes, pH 7.4, including the voltage sensitive dye). The measurement was completed after 7 minutes.
The data were evaluated by using the ActivityBase XLfit software (IDBS) for curve fitting and calculation of the half-maximal effective concentration (EC50) and are reported as negative decadic logarithm (pE50).
Method for Cooperia curticei: In Vitro Assay 6: Cooperia curticei (COOPCU L3)
Solvent: dimethyl sulfoxide
Approximately 40 nematode larvae (Cooperia curticei) are transferred into a test tube containing the compound solution.
After 5 days percentage of larval mortality is recorded. 100% efficacy means all larvae are killed; 0% efficacy means no larvae are killed.
Method for Haemonchus contortus: Solvent: dimethyl sulfoxide
Approximately 40 larvae of the red stomach worm (Haemonchus contortus) are transferred into a test tube containing compound solution.
After 5 days the percentage of larval mortality is recorded. 100% efficacy means all larvae are killed, 0% efficacy means no larvae are killed.

By EC50 is commonly meant the concentration needed to bring the measured effect to its halfway point. The mortality is the share of the test organisms that died. For the molecule `Cc1nn2c(C(C)C)c(C(=O)N[C@H]3CCOc4ccccc43)sc2c1-c1cc(Cl)c(F)c(Cl)c1` [Example 5, 7-(3,5-dichloro-4-fluorophenyl)-N-[(4S)-3,4-dihydro-2H-chromen-4-yl]-3-isopropyl-6-methylpyrazolo[5,1-b][1,3]thiazole-2-carboxamide], the inhibition at 1 µg/mL in assay [1] is > 80%. The inhibition at 10 µg/mL in assay [1] was > 80%. For the same molecule, the EC50 in assay [2] is < 0.1 µg/mL; at C. elegans Slo-1a it was < 3.16 nM. Further, the mortality at 20 ppm in the assay with Cooperia curticei is 90%.

`Cc1nn2c(C(C)C)c(C(=O)N[C@H]3CCc4ccccc43)sc2c1-c1cc(Cl)c(F)c(Cl)c1` [Example 14, 7-(3,5-dichloro-4-fluorophenyl)-N-[(1S)-2,3-dihydro-1H-inden-1-yl]-6-methyl-3-(propan-2-yl)pyrazolo[5,1-b][1,3]thiazole-2-carboxamide]: in assay [1], the inhibition at 1 µg/mL was > 80% and the inhibition at 10 µg/mL is > 80%. Moreover, in assay [2], the EC50 was < 0.1 µg/mL. For the same molecule, the EC50 on C. elegans Slo-1a is 3.16 to 31.6 nM.

With `Cc1nn2c(C(C)C)c(C(=O)N[C@H]3CCOc4ccccc43)sc2c1-c1ccc(F)c(F)c1` [Example 8, 7-(3,4-difluorophenyl)-N-[(4S)-3,4-dihydro-2H-chromen-4-yl]-6-methyl-3-(propan-2-yl)pyrazolo[5,1-b][1,3]thiazole-2-carboxamide], the EC50 is < 0.1 µg/mL in assay [2] and 3.16 to 31.6 nM on C. elegans Slo-1a.

In the case of `Cc1nn2c(C(C)C)c(C(=O)N[C@H]3CCOc4ccccc43)sc2c1-c1ccc(Cl)c(Cl)c1` [Example 7, 7-(3,4-dichlorophenyl)-N-[(4S)-3,4-dihydro-2H-chromen-4-yl]-6-methyl-3-(propan-2-yl)pyrazolo[5,1-b][1,3]thiazole-2-carboxamide], the inhibition at 10 µg/mL in assay [1] was > 80%. Moreover, the figures for the EC50 (in assay [2]; on C. elegans Slo-1a) were < 0.1 µg/mL and 3.16 to 31.6 nM, respectively.

As to `Cc1nn2c(C(C)C)c(C(=O)N[C@H]3CCOc4ccccc43)sc2c1-c1cccc(C(F)(F)F)c1F` [Example 3, 7-[2-fluoro-3-(trifluoromethyl)phenyl]-N-[(4S)-3,4-dihydro-2H-chromen-4-yl]-6-methyl-3-(propan-2-yl)pyrazolo[5,1-b][1,3]thiazole-2-carboxamide], the inhibition at 10 µg/mL in assay [1] was > 80%. Also, the EC50 was < 0.1 µg/mL in assay [2] and < 3.16 nM at C. elegans Slo-1a. Further, the mortality at 20 ppm with Cooperia curticei and in the assay on Haemonchus contortus was 90% throughout.

As for `Cc1nn2c(C(C)C)c(C(=O)N[C@H]3CCOc4ccccc43)sc2c1-c1cccc(Cl)c1Cl` [Example 2, 7-(2,3-dichlorophenyl)-N-[(4S)-3,4-dihydro-2H-chromen-4-yl]-6-methyl-3-(propan-2-yl)pyrazolo[5,1-b][1,3]thiazole-2-carboxamide], in assay [1], the inhibition at 10 µg/mL is > 80%. Further, the figures for the EC50 (in assay [2]; at C. elegans Slo-1a) were < 0.1 µg/mL and < 3.16 nM, respectively. Moreover, the mortality at 20 ppm in the assay with Cooperia curticei worked out at 90%.

In the case of `Cc1nn2c(C(C)C)c(C(=O)N[C@H]3CCOc4ccccc43)sc2c1-c1ccc(F)c(F)c1F` [Example 9], the EC50 in assay [2] is < 0.1 µg/mL; at C. elegans Slo-1a, 3.16 to 31.6 nM. In the assay on Cooperia curticei, the mortality at 20 ppm is 90%.

In the case of `Cc1nn2c(C(C)C)c(C(=O)N[C@H]3CCOc4ccccc43)sc2c1-c1cccc(C(F)(F)F)c1Cl` [Example 11, 7-[2-chloro-3-(trifluoromethyl)phenyl]-N-[(4S)-3,4-dihydro-2H-chromen-4-yl]-6-methyl-3-(propan-2-yl)pyrazolo[5,1-b][1,3]thiazole-2-carboxamide], the EC50 in assay [2] is < 0.1 µg/mL; on C. elegans Slo-1a, < 3.16 nM. Besides, the mortality at 20 ppm was determined as 100% with Cooperia curticei and 90% in the assay with Haemonchus contortus.

Take `Cc1nn2c(C(C)C)c(C(=O)N[C@H]3CCOc4ccccc43)sc2c1-c1cc(Cl)cc(Cl)c1Cl` [Example 12, N-[(4S)-3,4-dihydro-2H-chromen-4-yl]-6-methyl-3-(propan-2-yl)-7-(2,3,5-trichlorophenyl)pyrazolo[5,1-b][1,3]thiazole-2-carboxamide]: the EC50 is < 0.1 µg/mL in assay [2] and < 3.16 nM at C. elegans Slo-1a. Besides, the mortality at 20 ppm amounted to 100% in the assay with Cooperia curticei and 80% in the assay with Haemonchus contortus.

With `Cc1nn2c(C(C)C)c(C(=O)N[C@H]3CCc4ccccc43)sc2c1-c1cccc(Cl)c1Cl` [Example 15, 7-(2,3-dichlorophenyl)-N-[(1S)-2,3-dihydro-1H-inden-1-yl]-6-methyl-3-(propan-2-yl)pyrazolo[5,1-b][1,3]thiazole-2-carboxamide], the EC50 in assay [2] was < 0.1 µg/mL; on C. elegans Slo-1a, < 3.16 nM.

As for `Cc1nn2c(C(C)C)c(C(=O)N[C@H]3CCOc4ccccc43)sc2c1-c1cc(Cl)cc(Cl)c1` [Example 1, 7-(3,5-dichlorophenyl)-N-[(4S)-3,4-dihydro-2H-chromen-4-yl]-3-isopropyl-6-methylpyrazolo[5,1-b][1,3]thiazole-2-carboxamide], the inhibition at 1 µg/mL in assay [1] was > 80%. Moreover, the inhibition at 10 µg/mL in assay [1] is > 80%. Also, the EC50 in assay [2] is < 0.1 µg/mL; at C. elegans Slo-1a, 3.16 to 31.6 nM. In the assay with Haemonchus contortus, the mortality at 20 ppm came out at 90%.

Turning to `Cc1nn2c(C(C)C)c(C(=O)N[C@H]3CCOc4ccccc43)sc2c1-c1cccc(OC(F)(F)F)c1F` [Example 4, N-[(4S)-3,4-dihydro-2H-chromen-4-yl]-7-[2-fluoro-3-(trifluoromethoxy)phenyl]-3-isopropyl-6-methylpyrazolo[5,1-b][1,3]thiazole-2-carboxamide], in assay [1], the inhibition at 10 µg/mL is > 80%. In addition, the half-maximal effective concentration (EC50) was < 0.1 µg/mL in assay [2] and < 3.16 nM on C. elegans Slo-1a. Besides, the mortality at 20 ppm with Cooperia curticei and in the assay with Haemonchus contortus was 80% each time.

For `Cc1nn2c(C(C)C)c(C(=O)N[C@H]3CCOc4ccccc43)sc2c1-c1ccc(F)c(N(C)C)c1F` [Example 6, N-[(4S)-3,4-dihydro-2H-chromen-4-yl]-7-[3-(dimethylamino)-2,4-difluorophenyl]-6-methyl-3-(propan-2-yl)pyrazolo[5,1-b][1,3]thiazole-2-carboxamide], in assay [1], the inhibition at 1 µg/mL was > 80% and the inhibition at 10 µg/mL was > 80%. The EC50 in assay [2] is < 0.1 µg/mL. In addition, in the assay on Cooperia curticei, the mortality at 20 ppm is 90%. Moreover, on C. elegans Slo-1a, the EC50 is < 3.16 nM.

With `Cc1nn2c(C(C)C)c(C(=O)N[C@H]3CCOc4ccccc43)sc2c1-c1c(Cl)cccc1Cl` [Example 10, 7-(2,6-dichlorophenyl)-N-[(4S)-3,4-dihydro-2H-chromen-4-yl]-6-methyl-3-(propan-2-yl)pyrazolo[5,1-b][1,3]thiazole-2-carboxamide], the EC50 in assay [2] is < 0.1 µg/mL; on C. elegans Slo-1a, < 3.16 nM.

`Cc1nn2c(C(C)C)c(C(=O)N[C@H]3CCOc4ccccc43)sc2c1-c1cccc(N(C)C)c1F` [Example 13, N-[(4S)-3,4-dihydro-2H-chromen-4-yl]-7-[3-(dimethylamino)-2-fluorophenyl]-6-methyl-3-(propan-2-yl)pyrazolo[5,1-b][1,3]thiazole-2-carboxamide]: in assay [1], the inhibition at 1 µg/mL was > 80%. Further, the figures for the EC50 (in assay [2]; on C. elegans Slo-1a) were < 0.1 µg/mL and < 3.16 nM, respectively. The mortality at 20 ppm with Cooperia curticei came out at 90%.
